Results: patent US11179501B2, “Bone morphogenetic protein pathway activation, compositions for ossification, and methods related thereto” (Emory University, priority 2011, dated 2021)
Where a name gives a salt, the structure may show the parent alone.

System: C2C12 cells
Assay: Alkaline phosphatase (ALP) assay: potentiation of BMP-2-induced ALP activity
Settings: C2C12 cells; for cell lifting from culture plates: ALP assay
Description: Their activity was evaluated by determining the potentiation of alkaline phosphatase activity in sub-optimal doses of BMP in the presence or absence of exogenously added noggin.
The BMP-potentiating activities of compounds may be evaluated by monitoring several markers of the osteoblastic phenotype corresponding to various time points during phenotype differentiation of C2C12 cells towards terminally differentiated osteoblasts.
The C2C12 cells at passages 5 to 10 were subcultured in T-75 cm^2 flasks in DMEM supplemented with 10% FBS at 37° C. in 5% CO2 with humidification. When the flasks reached 80% confluence, the cells were trypsinized and seeded in triplicate.
The C2C12 cells were plated at 200,000 cells/well in 6-well plates and grown overnight in DMEM containing 10% FBS. On day 2, the culture medium was replaced with DMEM containing 2% FBS and the cells were treated with various concentrations of compound for 24 hours. On day 3, the culture medium was replaced with DMEM containing 2% FBS and the cells were treated with 50 ng/ml of BMP-2 and various concentrations of compound for 72 hours. The cells were washed with phosphate-buffered saline (PBS) and lysed by addition of lysis buffer (10 mM Tris-HCl pH 8.0, 1 mM MgCl2 and 1.0% Triton X-100). The cell lysates were centrifuged for 5 minutes at 13,000×g. The supernatant was removed and the aliquots were assayed for ALP activity and protein amount. The ALP activity was measured in triplicate using an ALP assay kit (Sigma-Aldrich, St. Louis, Mo.) in microtiter plates. The protein amount was determined with Bio-Rad protein assay reagent (Bio-Rad, Hercules, Calif.) using bovine serum albumin (BSA) as a standard. The ALP activity (nmoles of p-nitrophenol per ml) was normalized to the protein amount (nmoles of p-nitrophenol per μg).

Row | Structure (SMILES) | Fold-increase of BMP-induced ALP (over BMP alone control) | cell lifting from culture plates
1 | C#CC(c1ccccc1)(c1ccccc1)n1ccnc1 [1-(1,1-diphenylprop-2-yn-1-yl)-1H-imidazole] | 7.0 | –
2 | O=c1[nH]cc(F)c(=O)[nH]1 [5-fluorouracil] | – | caused cell lifting from culture plates
3 | CC[C@@]1(O)C(=O)OCc2c1cc1n(c2=O)Cc2cc3c(N)cccc3nc2-1 [9-aminocamptothecin] | 10.0 | –
4 | CCCSc1ccc2nc(NC(=O)OC)[nH]c2c1 [Albendazole, albendazole] | – | caused cell lifting from culture plates
5 | C=C1/C(=C\C=C2/CCC[C@]3(C)[C@@H]([C@H](C)/C=C/[C@@H](O)C4CC4)CC[C@@H]23)C[C@@H](O)C[C@@H]1O [Calcipotriol, calcipotriol] | – | caused cell lifting from culture plates
6 | Nc1ccn([C@@H]2O[C@H](CO)[C@@H](O)[C@@H]2O)c(=O)n1 [Cytarabine HCl] | 2.0 | –
7 | COc1cccc2c1C(=O)c1c(O)c3c(c(O)c1C2=O)C[C@@](O)(C(C)=O)C[C@@H]3O[C@H]1C[C@H](N)[C@H](O)[C@H](C)O1 [Daunorubicin hydrochloride] | 7.0 | caused cell lifting from culture plates
8 | Nc1ncn([C@H]2C[C@H](O)[C@@H](CO)O2)c(=O)n1 [Decitabine] | 6.0 | –
9 | CC(=O)O[C@@]12CO[C@@H]1C[C@H](O)[C@@]1(C)C(=O)[C@H](O)C3=C(C)[C@@H](OC(=O)[C@H](O)[C@@H](NC(=O)OC(C)(C)C)c4ccccc4)C[C@](O)([C@@H](OC(=O)c4ccccc4)[C@H]21)C3(C)C [Docetaxel, (2aR,4S,4aS,6R,9S,11R,12S,12aR,12b S)-12b-acetoxy-9-(((2R,3S)-3-((tert-butoxycarbonyl)amino)-2-hydroxy-3-phenylpropanoyl)oxy)-4,6,11-trihydroxy-4a,8,13,13-tetramethyl-5-oxo-2a,3,4,4a,5,6,9,10,11,12,12a,12b-dodecahydro-1H-7,11-methanocyclodeca[3,4]benzo[1,2-b]oxet-12-yl benzoate] | – | caused cell lifting from culture plates
10 | COc1cccc2c1C(=O)c1c(O)c3c(c(O)c1C2=O)C[C@@](O)(C(=O)CO)C[C@@H]3O[C@H]1C[C@H](N)[C@H](O)[C@H](C)O1 [Doxorubicin] | 4.0 | –
11 | Clc1ccc(COC(Cn2ccnc2)c2ccc(Cl)cc2Cl)cc1 (centres unmarked) [Econazole nitrate, econazole nitrate] | – | caused cell lifting from culture plates
12 | CO[C@@]12[C@H](COC(N)=O)C3=C(C(=O)C(C)=C(N)C3=O)N1C[C@@H]1N[C@@H]12 [Mitomycin C] | 12.0 | –
13 | O=C1c2c(O)ccc(O)c2C(=O)c2c(NCCNCCO)ccc(NCCNCCO)c21 [Mitoxantrone, mitoxantrone] | 4.0 | caused cell lifting from culture plates
14 | Cc1ccc(Nc2nccc(N(C)c3ccc4c(C)n(C)nc4c3)n2)cc1S(N)(=O)=O [Pazopanib] | 2.5 | –
15 | CCN(CC)CCNC(=O)c1c(C)[nH]c(/C=C2\C(=O)Nc3ccc(F)cc32)c1C [Sunitinib] | 4.0 | –
16 | COc1cc([C@@H]2c3cc4c(cc3[C@@H](O[C@@H]3O[C@@H]5CO[C@@H](c6cccs6)O[C@H]5[C@H](O)[C@H]3O)[C@H]3COC(=O)[C@H]23)OCO4)cc(OC)c1O [Teniposide] | 7.0 | –
17 | CC[C@@]1(O)C(=O)OCc2c1cc1n(c2=O)Cc2cc3c(CN(C)C)c(O)ccc3nc2-1 [Topotecan] | 4.0 | –
18 | CCCCC(=O)OCC(=O)[C@]1(O)Cc2c(O)c3c(c(O)c2[C@@H](O[C@H]2C[C@H](NC(=O)C(F)(F)F)[C@H](O)[C@H](C)O2)C1)C(=O)c1c(OC)cccc1C3=O [Valrubicin] | 3.0 | –
